Experimental data as given in US20100035865A1, “Sulfonamides and Pharmaceutical Compositions Thereof” (PFIZER INC, priority 2007, published 2010).
Values joined by “and” are separate entries in the source; they are usually repeats but may differ in a detail not shown here. Identical values can stand only once. Like-named read-outs stand apart in the source and are kept apart here.

System: AMPA receptors
Assay: AMPA ES Cell FLIPR Screen, G7330B (EC50 and % effect)
Assay type: cell-based, murine
Details: for EC50: ES cell-derived neurons, 32 uM AMPA challenge
Description: The murine ES cell line used was E14-Sx1-16C, which has a targeted mutation in the Sox1 gene, a neuroectodermal marker, that offers G418 resistance when the Sox1 gene is expressed (Stem Cell Sciences). ES cells were maintained undifferentiated as previously described (Roach). […] ES cells were plated on gelatin-coated dishes (BD Biosciences), the media was changed daily and the cells were dissociated with 0.05% Trypsin EDTA (Invitrogen) every other day.
Embryoid Body Formation: Prior to embryoid body (EB) formation the ES cells were weaned from FBS onto Knockout Serum Replacement (KSR) (Invitrogen). To form EBs, ES cells were dissociated into a single cell suspension then 3×10^6 cells were plated in bacteriology dishes (Nunc 4014) and grown as a suspension culture in NeuroEB-I medium that consisted of Knockout™ D-MEM (Invitrogen), supplemented with 10% KSR (Invitrogen), 0.2 mM L-Glutamine (Invitrogen), 0.1 mM MEM non-essential amino acids (Invitrogen), 30 μg/ml Gentamicin (Invitrogen), 1000 u/ml ESGRO (Chemicon), 0.1 mM 2-Mercaptoethanl (Sigma) and 150 ng/ml Transferrin (Invitrogen). The plates were put on a Stovall Belly Button shaker in an atmospheric oxygen incubator. The media was changed on day 2 of EB formation with NeuroEB-I and on day 4 with NeuroEB-II (NeuroEB-I plus 1 μg/ml mNoggin [R&D Systems]).
Neuronal Precursor Selection and Expansion: On day 5 of EB formation, EBs were dissociated with 0.05% Trypsin EDTA, and 4×10^6 cells/100 mm dish were plated on Laminin coated tissue culture dishes in NeuroII-G418 medium that consisted of a base medium of a 1:1 mixture of D-MEM/F12 supplemented with N2 supplements and NeuroBasal Medium supplemented with B27 supplement and 0.1 mM L-Glutamine (all from Invitrogen). The base medium was then supplemented with 10 ng/ml bFGF (Invitrogen), 1 μg/ml mNoggin, 500 ng/ml SHH-N, 100 ng/ml FGF-8b (R&D Systems), 1 μg/ml Laminin and 200 μg/ml G418 (Invitrogen) for selection of neuronal precursors expressing Sox-1. The plates were put in an incubator that contained 2% Oxygen and were maintained in these conditions. During the 6-day selection period, the NeuroII media was changed daily. On day 6, the surviving neuronal precursor foci were dissociated with 0.05% Trypsin EDTA and the cells were plated at a density of 1.5×10^6 cells/100 mm Laminin coated dish in NeuroII-G418 medium. The cells were dissociated every other day for expansion, and prepared for Cryopreservation at passage 3 or 4. The cryopreservation medium contained 50% KSR, 10% Dimethyl Sulfoxide (DMSO) (Sigma) and 40% NeuroI-G418I medium. Neuronas precursors were crypreserved at a concentration of 4×10^6cells/ml and 1 ml/cryovial in a controlled rate freezer overnight then transferred to an ultra-low freezer or liquid nitrogen for long-term storage,
Neuronal Differentiation: Cryopreserved ES cell-derived neuronal precursors were thawed by the rapid thaw method in a 37-degree water-bath. The cells were transferred from the cryovial to a 100 mm Laminin coated tissue culture dish that already contained NeuroII-G418 that had been equilibrated in a 2% Oxygen incubator. The media was changed with fresh NeuroII-G418 the next day. The cells were dissociated every other day as described above for expansion to generate enough cells to plate for the screen. For the screen, the cells were plated into 384-well poly-d-lysine coated tissue culture dishes (BD Biosciences) by the automated SelecT at a cell density of 6K cells/well in differentiation medium NeuroIII that contained a 4:1 ratio of the NeuroBasalMedium/B27:D-MEM/F12/N2 supplemented with 1 μM cAMP (Sigma), 200 μM Ascorbic Acid (Sigma), 1 μg/ml Laminin (Invitrogen) and 10 ng/ml BDNF (R&D Systems). The plates were put in an incubator with 2% Oxygen and allowed to complete the differentiation process for 7 days. The cells could then be used over a 5-day period for the high throughput screen.
Procedure for AMPA ES Cell FLIPR Screen […]

[1] = Dose 31.6 uM, individual determinations
[2] = individual determinations, read-out: G7330B (U): EC50
[3] = mean of individual determinations (range and n in cells below), read-out: G7330B mean EC50
[4] = Dose 32.0 uM, individual determinations

| SMILES | EC50 [2] | EC50 [3] [µM] | G7330B (U): % Effect [1] | G7330B (U): % Effect [4] |
| --- | --- | --- | --- | --- |
| CC(C)S(=O)(=O)NC1CCNCC1c1ccc(-c2ccccc2C#N)cc1 (stereo not drawn) [Example 20, Propane-2-sulfonic acid[trans-3-(2′-cyano-biphenyl-4-yl)-piperidin-4-yl]-amide] | > 32 µM | > 32 |  | 39.9% and 48.6% and 44.4% |
| CC(C)S(=O)(=O)NC1CCNCC1c1ccc(-c2ccccc2Cl)cc1 (stereo not drawn) [Example 22, Propane-2-sulfonic acid[trans-3-(2′-chloro-biphenyl-4-yl)-piperidin-4-yl]-amide] | > 32 µM | > 32 |  | 18.9% and 23.3% and 17.1% |
| CC(C)S(=O)(=O)NC1CCN(C)CC1c1ccc(-c2ccccc2)cc1 (stereo not drawn) [Example 25, Propane-2-sulfonic acid(trans-3-biphenyl-4-yl-1-methyl-piperidin-4-yl)-amide] | > 32 µM | > 32 |  | −0.323% and 0.295% and 2.72% |
| CC(C)S(=O)(=O)N[C@H]1COCC[C@]1(O)c1ccc(-c2ccccc2)cc1 (relative stereo) [Example 41, Propane-2-sulfonic acid((3S,4S)-rel-4-biphenyl-4-yl-4-hydroxytetrahydro-pyran-3-yl)-amide] | 3.05 µM | 3.05 | 58.3% and 66.6% |  |
| CC(C)S(=O)(=O)NC1CCNCC1c1ccc(-c2ccc(C#N)cc2)cc1 (stereo not drawn) [Example 19, Propane-2-sulfonic acid[trans-3-(4′-cyano-biphenyl-4-yl)-piperidin-4-yl]-amide] | > 32 µM | > 32 |  | 6.07% and 7.12% and 6.19% |
| CC(C)S(=O)(=O)NC1CCN(C)CC1c1ccc(-c2ccc(C#N)cc2)cc1 (stereo not drawn) [Example 24, Propane-2-sulfonic acid[trans-3-(4′-cyano-biphenyl-4-yl)-1-methyl-piperidin-4-yl]-amide] | > 31.6 µM | > 31.6 | 14.5% and 19.9% and 12.7% |  |
| CC(C)S(=O)(=O)NC1CCNCC1c1ccc(-c2ccccc2)cc1 (stereo not drawn) [Example 18, Propane-2-sulfonic acid(trans-3-biphenyl-4-yl-piperidin-4-yl)-amide] | > 32 µM | > 32 |  | 5.77% and 3.59% and 3.97% |
| CC(C)S(=O)(=O)NC1CN(S(C)(=O)=O)CCC1c1ccc(-c2ccccc2)cc1 (stereo not drawn) [Example 6, propane-2-sulfonic acid (trans-4-biphenyl-4-yl-1-methanesulfonyl-piperidin-3-yl-amide] | > 31.6 µM | > 31.6 | 0.710% and −1.26% and 0.0628% |  |
| CC(C)S(=O)(=O)NC1CCOCC1c1ccc(-c2ccccc2)cc1 (stereo not drawn) [Example 15, Propane-2-sulfonic acid(trans-3-biphenyl-4-yl-tetrahydro-pyran-4-yl)-amide] | 2.84 µM and 3.14 µM and 5.42 µM | 3.64 |  | 108% and 109% and 101% |
| CCN1CC[C@@H](c2ccc(-c3ccccc3)cc2)[C@H](NS(=O)(=O)C(C)C)C1 (relative stereo) [Example 5, propane-2-sulfonic acid (trans-4-biphenyl-4-yl-1-ethyl-piperidin-3-yl)-amide] | > 31.6 µM | > 31.6 | 76.3% and 78.8% |  |
| CC(=O)N1CCC(NS(=O)(=O)C(C)C)C(c2ccc(-c3ccccc3)cc2)C1 (stereo not drawn) [Example 27, propane-2-sulfonic acid(trans-1-acetyl-3-biphenyl-4-yl-piperidin-4-yl)-amide] | 6.92 µM | 6.92 |  | 136% and 134% and 127% |
| CC(C)S(=O)(=O)NC1CCOCC1c1ccc(-c2ccccc2)cc1 (stereo not drawn) [Example 17, Propane-2-sulfonic acid(cis-3-biphenyl-4-yl-tetrahydro-pyran-4-yl)-amide] | 7.17 µM | 7.17 |  | 150% and 138% and 125% |

The next lines start with results.

| EC50 [2] | EC50 [3] [µM] | SMILES | G7330B (U): % Effect [1] | G7330B (U): % Effect [4] |
| --- | --- | --- | --- | --- |
| 11.9 µM | 11.9 | CC(C)S(=O)(=O)NC1COCCC1(O)c1ccc(-c2ccccc2)cc1 [Example 42, Propane-2-sulfonic acid((3R,4S)-rel-4-biphenyl-4-yl-4-hydroxy-tetrahydro-pyran-3-yl)-amide] | 145% and 142% and 152% |  |
| 7.04 µM | 7.04 | CC(C)S(=O)(=O)N[C@@H]1COCC[C@H]1c1ccc(-c2ccccc2Cl)cc1 [Example 36, Propane-2-sulfonic acid[trans-4-(2′-chloro-biphenyl-4-yl)-tetrahydro-pyran-3-yl]-amide] |  |  |
| > 31.6 µM | > 31.6 | CC(=O)N1CCC(c2ccc(-c3ccccc3)cc2)C(NS(=O)(=O)C(C)C)C1 (stereo not drawn) [Example 43, Propane-2-sulfonic acid(trans-1-acetyl-4-biphenyl-4-yl-piperidin-3-yl)-amide] | 85.0% and 92.2% and 102% |  |
| > 32 µM | > 32 | CC(C)S(=O)(=O)NC1COCCC1c1ccc(-c2ccccc2)cc1 (stereo not drawn) [Example 31, Propane-2-sulfonic acid(cis-4-biphenyl-4-yl-tetrahydro-pyran-3-yl)-amide] |  | 18.3% and 11.0% and 14.5% |
| 6.44 µM | 6.44 | CC(=O)N1CCC(NS(=O)(=O)C(C)C)C(c2ccc(-c3ccc(C#N)cc3)cc2)C1 (stereo not drawn) [Example 28, Propane-2-sulfonic acid[trans-1-acetyl-3-(4′-cyano-biphenyl-4-yl)-piperidin-4-yl]-amide] |  | 128% and 132% and 116% |
| > 10 µM | > 10 | CC(C)S(=O)(=O)N[C@@H]1COCC[C@H]1c1ccc(-c2ccc(S(C)(=O)=O)cc2)cc1 [Example 37, Propane-2-sulfonic acid[trans-4-(4′-methanesulfonyl-biphenyl-4-yl)-tetrahydro-pyran-3-yl]-amide] |  |  |
| 1.25 µM | 1.25 | CC(C)S(=O)(=O)N[C@@H]1COCC[C@H]1c1ccc(-c2ccccc2C#N)cc1 [Example 34, Propane-2-sulfonic acid[trans-4-(2′-cyano-biphenyl-4-yl)-tetrahydro-pyran-3-yl]-amide] | 137% |  |
| 1.73 µM and 1.44 µM and 2.16 µM and 1.96 µM and 1.28 µM and 1.51 µM and 2.74 µM and 2.29 µM and 3.61 µM and 3.13 µM | 2.07 | CC(=O)N1CCC(NS(=O)(=O)C(C)C)C(c2ccc(-c3ccccc3C#N)cc2)C1 (stereo not drawn) [Example 29, Propane-2-sulfonic acid[trans-1-acetyl-3-(2′-cyano-biphenyl-4-yl)-piperidin-4-yl]-amide] | 201% and 204% and 155% (2×) and 159% and 194% and 364% and 391% and 363% and 195% (3×) and 187% and 150% and 151% and 202% |  |
| 11.7 µM | 11.7 | CC(=O)N1CC[C@@H](NS(=O)(=O)C(C)C)[C@H](c2ccc(NC(=O)c3cc(F)cc(F)c3)cc2)C1 (relative stereo) [Example 40, N-{4-[trans-1-Acetyl-4-(propane-2-sulfonylamino)-piperidin-3-yl]-phenyl}-3,5-difluoro-benzamide] | 152% and 179% and 176% |  |
| > 10 µM | > 10 | CNC(=O)c1ccc(-c2ccc([C@@H]3CCOC[C@H]3NS(=O)(=O)C(C)C)cc2)cc1 (relative stereo) [Example 38, 4′-[trans-3-(Propane-2-sulfonylamino)-tetrahydro-pyran-4-yl]-biphenyl-4-carboxylic acid methylamide] |  |  |
| 5.39 µM and > 31.6 µM and 6.36 µM | > 10.3 | CC(C)S(=O)(=O)NC1COCCC1c1ccc(-c2ccccc2)cc1 (stereo not drawn) [Example 30, Propane-2-sulfonic acid(trans-4-biphenyl-4-yl-tetrahydro-pyran-3-yl)-amide] |  | 119% and 113% and 126% |
